We go through six compounds from patent publication US5856435A, “Nucleic acid-containing composition, its preparation and use” (Rhone-Poulenc Rorer SA, priority 1994, dated 1999).

Data set [1] in a line: Encapsulation of the nucleic acid INV-Val13 in nanoparticles of PLA50(30)-PEG(2). The text has this:
The nanoparticles used in this example are diblock copolymers consisting of a poly(D,L-lactic acid) linked via an ester bond to a poly(ethylene glycol): PLAp(M)-PEG(N) where M and N are, respectively, the average molecular masses (in kD) of the PLA and the PEG, and p is the percentage of L-lactic acid. The 2 types of nanoparticles used are PLA50(30)-PEG(2) and PLA50(30)-PEG(5). These copolymers may be synthesized by any technique known to a person skilled in the art (see, for example, EP 520,889).
The nucleic acids were treated with phage T4 polynucleotide kinase (Biolabs) in the presence of [γ-^32 P]ATP (Amersham) in a kinase buffer. After 30 min of incubation at 37° C., the nucleic acid was separated from unreacted ATP by application to a Sephadex G25 column (Quick Spin) and centrifugation.
This Example describes the encapsulation of the nucleic acid INV-Val13 in a nanoparticle of PLA50 (30)-PEG(2) in the presence or absence of oligopeptide (LKKL)10 (SEQ ID NO:6).
The polymer used, (PLA50(30)-PEG(2)), was solubilized in 1 ml of acetone at a concentration of 10 g/l. The isotopic dilution of the nucleic acid (final concentration 10^-5 M) was added, followed by the oligopeptide (at a concentration such that R=1). The organic solution obtained was then poured dropwise into 5 ml of an aqueous solution (50 mM Tris-HCl buffer pH 7.4) with stirring. […]

The test system of data set [2] is T24/EJ cell line originating from a human bladder carcinoma. The experiment in a line: Transfer of nucleic acid into cells: inhibition of cell proliferation induced by the antisense nucleic acid. In kind it is cell-based. To be noted: naked, 30 μM, 72 or 96 hours of culture. The procedure: The tests of nucleic acid transfer described in this example were performed on a cell line originating from a human bladder carcinoma, designated T24/EJ, available in the ATCC. The cells were cultured in MEM-EAGLE medium ("minimum essential medium", Biological Industries) supplemented with L-glutamine ((5 mM), streptomycin (50 u/ml) and penicillin (50 u/ml) in the presence of 7% of foetal calf serum decomplemented for 30 min at 60° C.
The cells (1500/well) were inoculated into 96-well microplates, in the absence or presence of nucleic acid, encapsulated or otherwise in nanoparticles, in a total volume of 100 μl. Each point was performed in triplicate. […]
In the first place, the incorporation of tritiated thymidine, which was determined after adding 2 μCi of 3 H thymidine per well. After 6 hours of incubation in an incubator, the plates were washed with a Skatron apparatus (Lier, Norway), the DNA was collected on a filter and each disc of the filter (corresponding to each well of the plate) was placed in scintillation fluid and then counted in a counter (LKB Wallac 1211 Minibeta). […]
Next, cell proliferation was evaluated by counting the cells in a Malassez cell. For this purpose, the supernatant was removed, the cells were trypsinized (10 min at 37° C.) and culture medium was added to them before they were counted.

Data set [3] can be described thus: study of the dichroic spectra: secondary structures adopted by the cationic oligopeptides. In kind it is physicochemical. The text has this: The capacity of the oligopeptides to form secondary structures may be verified by circular dichroism or in NMR, as shown in the examples.
Moreover, as shown in the Table below, a study of the dichroic spectra enabled the secondary structures adopted by the cationic oligopeptides used, in solution or after complexing, to be confirmed.

The next data set is described as follows: physchem. Particulars: water.
The nature of data set [4]: solubility of the oligopeptide in water.
Setting [5] is: 50 mM phosphate buffer/0.2 M NaCl.

Converted amounts (≈) assume the structure as drawn. Residues, ends and D or L forms follow the SMILES beside them.

The solubility is the concentration that dissolves in the medium under given conditions. High values mean a readily soluble substance, low ones a poorly soluble substance.

In the case of “3'-CACACCGACGGCG-5' (chemistry not given here; listed 3' to 5') [INV-Val13]”, the “encapsulation yield of INV-Val13 in the nanoparticle” value in data set [1] (in the presence of oligopeptide (LKKL)10, R=1, nucleic acid 10^-5 M) is 56%; in data set [1] (without the oligopeptide, nucleic acid 10^-5 M) it was 5%.
With “3'-CGCGGCAGCCAC-5' (chemistry not given here; listed 3' to 5') [AS-Val12]”, the “inhibition of cell proliferation” value in data set [2] turned out to be 42%.
With `CC(C)C[C@H](NC(=O)[C@H](CCCCN)NC(=O)[C@H](CCCCN)NC(=O)[C@H](CC(C)C)NC(=O)[C@H](CC(C)C)NC(=O)[C@H](CCCCN)NC(=O)[C@H](CCCCN)NC(=O)[C@H](CC(C)C)NC(=O)[C@H](CC(C)C)NC(=O)[C@H](CCCCN)NC(=O)[C@H](CCCCN)NC(=O)[C@H](CC(C)C)NC(=O)[C@H](CC(C)C)NC(=O)[C@H](CCCCN)NC(=O)[C@H](CCCCN)NC(=O)[C@H](CC(C)C)NC(=O)[C@H](CC(C)C)NC(=O)[C@H](CCCCN)NC(=O)[C@H](CCCCN)NC(=O)[C@H](CC(C)C)NC(=O)[C@H](CC(C)C)NC(=O)[C@H](CCCCN)NC(=O)[C@H](CCCCN)NC(=O)[C@H](CC(C)C)NC(=O)[C@H](CC(C)C)NC(=O)[C@H](CCCCN)NC(=O)[C@H](CCCCN)NC(=O)[C@H](CC(C)C)NC(=O)[C@H](CC(C)C)NC(=O)[C@H](CCCCN)NC(=O)[C@H](CCCCN)NC(=O)[C@H](CC(C)C)NC(=O)[C@H](CC(C)C)NC(=O)[C@H](CCCCN)NC(=O)[C@H](CCCCN)NC(=O)[C@H](CC(C)C)NC(=O)[C@H](CC(C)C)NC(=O)[C@H](CCCCN)NC(=O)[C@H](CCCCN)NC(=O)[C@@H](N)CC(C)C)C(=O)O` [(LKKL)10, (H)-(Leucine-Lysine-Lysine-Leucine)10 -(OH)] (H-LKKLLKKLLKKLLKKLLKKLLKKLLKKLLKKLLKKLLKKL-OH), the “secondary structure (dichroic spectra)” value in data set [3] (50 mM phosphate buffer) was “α Helix”; in data set [3] (setting [5]), “α Helix”; in data set [3] (Water/nucleic acid), “α Helix”; in data set [3] (water) it was “unstructured”. For the same compound, the “conformation in saline solution” value in data set [3] is “α-helical”. Besides, the conformation in water entry in data set [3] (water) is listed as “unstructured”. The compound also registered a solubility in “physchem” of 50 mg/mL (≈ 10.3 mM).
Turning to `CC(C)C[C@H](NC(=O)[C@H](CCCCN)NC(=O)[C@H](CC(C)C)NC(=O)[C@H](CCCCN)NC(=O)[C@H](CC(C)C)NC(=O)[C@H](CCCCN)NC(=O)[C@H](CC(C)C)NC(=O)[C@H](CCCCN)NC(=O)[C@H](CC(C)C)NC(=O)[C@H](CCCCN)NC(=O)[C@H](CC(C)C)NC(=O)[C@H](CCCCN)NC(=O)[C@H](CC(C)C)NC(=O)[C@H](CCCCN)NC(=O)[C@H](CC(C)C)NC(=O)[C@H](CCCCN)NC(=O)[C@H](CC(C)C)NC(=O)[C@H](CCCCN)NC(=O)[C@H](CC(C)C)NC(=O)[C@H](CCCCN)NC(=O)[C@H](CC(C)C)NC(=O)[C@H](CCCCN)NC(=O)[C@H](CC(C)C)NC(=O)[C@H](CCCCN)NC(=O)[C@H](CC(C)C)NC(=O)[C@H](CCCCN)NC(=O)[C@H](CC(C)C)NC(=O)[C@H](CCCCN)NC(=O)[C@H](CC(C)C)NC(=O)[C@H](CCCCN)NC(=O)[C@H](CC(C)C)NC(=O)[C@H](CCCCN)NC(=O)[C@H](CC(C)C)NC(=O)[C@H](CCCCN)NC(=O)[C@H](CC(C)C)NC(=O)[C@H](CCCCN)NC(=O)[C@H](CC(C)C)NC(=O)[C@H](CCCCN)NC(=O)[C@@H](N)CC(C)C)C(=O)N[C@@H](CCCCN)C(=O)O` [(LKLK)10, (H)-(Leucine-Lysine-Leucine-Lysine)10 -(OH)] (H-LKLKLKLKLKLKLKLKLKLKLKLKLKLKLKLKLKLKLKLK-OH), the “secondary structure (dichroic spectra)” value in data set [3] (50 mM phosphate buffer) is reported as “β Sheet”; in data set [3] (setting [5]) it was “β Sheet”; in data set [3] (Water/nucleic acid), “β Sheet”; in data set [3] (water) it was “unstructured”. Moreover, the “conformation in saline solution” value in data set [3] is “β-sheet”. Further, in data set [3] (water), the conformation in water result is “unstructured”. Further, in data set [4], the solubility is 100 mg/mL (≈ 20.6 mM).
Turning to `CC(C)C[C@H](NC(=O)[C@H](CCCCN)NC(=O)[C@H](CCCCN)NC(=O)[C@@H]1CCCN1C(=O)[C@H](CC(C)C)NC(=O)[C@H](CCCCN)NC(=O)[C@H](CCCCN)NC(=O)[C@@H]1CCCN1C(=O)[C@H](CC(C)C)NC(=O)[C@H](CCCCN)NC(=O)[C@H](CCCCN)NC(=O)[C@@H]1CCCN1C(=O)[C@H](CC(C)C)NC(=O)[C@H](CCCCN)NC(=O)[C@H](CCCCN)NC(=O)[C@@H]1CCCN1C(=O)[C@H](CC(C)C)NC(=O)[C@H](CCCCN)NC(=O)[C@H](CCCCN)NC(=O)[C@@H]1CCCN1C(=O)[C@H](CC(C)C)NC(=O)[C@H](CCCCN)NC(=O)[C@H](CCCCN)NC(=O)[C@@H]1CCCN1C(=O)[C@H](CC(C)C)NC(=O)[C@H](CCCCN)NC(=O)[C@H](CCCCN)NC(=O)[C@@H]1CCCN1C(=O)[C@H](CC(C)C)NC(=O)[C@H](CCCCN)NC(=O)[C@H](CCCCN)NC(=O)[C@@H]1CCCN1C(=O)[C@H](CC(C)C)NC(=O)[C@H](CCCCN)NC(=O)[C@H](CCCCN)NC(=O)[C@@H]1CCCN1C(=O)[C@H](CC(C)C)NC(=O)[C@H](CCCCN)NC(=O)[C@H](CCCCN)NC(=O)[C@@H]1CCCN1)C(=O)O` [(PKKL)10, (H)-(Proline-Lysine-Lysine-Leucine)10 -(OH), reference compound] (H-PKKLPKKLPKKLPKKLPKKLPKKLPKKLPKKLPKKLPKKL-OH), the “secondary structure (dichroic spectra)” value in data set [3] (50 mM phosphate buffer), in data set [3] (setting [5]), in data set [3] (Water/nucleic acid) and in data set [3] (water) was “unstructured” each time. The “conformation in saline solution” value in data set [3] is given as “not structured”.
For Polylysine [reference compound], in data set [3], the “conformation in saline solution” value is “not structured”.
